# Source: patent publication US9901638B2, “Composition and method for treating an autoimmune disease” (RedHill Biopharma Ltd., priority 2011, dated 2018)
# Tested on: EAE relapse (remitting-relapsing MS model)
# Experiment: EAE relapse study (PLP139-151/CFA), therapeutic treatment
# Format: in vivo
# Conditions: groups of 15; treatment from enrolment to Day 39; vehicle group 8 mice; FTY-720 3 mg/kg p.o. QD, RHB-104 p.o. BID
# Text: Disease was induced by immunizing mice on Day 0 with PLP139-151 peptide emulsified in complete Freund's adjuvant (CFA).
# To assess disease development, mice were weighed three times per week (Monday, Wednesday and Friday) from the time of immunization and scored daily for clinical signs of EAE starting on Day 9.
# Enrollment of mice into groups occurred on the second day of clinical signs of EAE for each mouse. Mice were enrolled into treatment groups as they develop signs of EAE (rolling enrolment).
# 45 mice were enrolled into 3 groups of 15 and the treatment started on the day of enrolment. Assignment was balanced to achieve similar scores between the groups at enrolment.
# Group 1—Vehicle (PBS), p.o., BID, 5 mL/kg (negative control)
# Group 2—treated with FTY-720 (Fingolimod, Gilenya) 3 mg/kg, p.o., QD (a drug used for treatment of MS and used as a positive control)
# Group 3—treated with RHB-104, p.o., BID, 5 mL/kg
# Treatment started on the day of enrolment and continued until Day 39.
# All dosing was performed at the same time (+/−1 hour) each day. […]
# Mice were scored daily from Day 9 to Day 40, and body weight was measured three times/week (Monday, Wednesday and Friday), starting before immunization (Day −1). […]
# Readouts were EAE scores on the scale 0-5 in 0.5 unit increments, and changes in body weight.
# EAE was scored on scale 0 to 5 as described above.
smiles,measurement,value
"CCCCCCCCc1ccc(CCC(N)(CO)CO)cc1 [FTY-720, Fingolimod]",Number of mice showing relapse,2 mice
